Here are results for two molecules from ChEMBL document CHEMBL3774317, “Design and synthesis of novel tamoxifen analogues that avoid CYP2D6 metabolism” (Eur J Med Chem, 2016).

Common to all, as to assay type: functional
A short description of test [1]: Cytotoxicity against human SF268 cells assessed as cell growth at 10^-7 M after 48 hrs by SRB assay. To be noted: SF-268, 48 h, read-out: Activity.
Test [2] is described as follows: Cytotoxicity against human SNB19 cells assessed as cell growth at 10^-7 M after 48 hrs by SRB assay. To be noted: SNB-19, 48 h, read-out: Activity. For orientation: In SRB staining, fixed cells bind dye roughly in proportion to their protein.
The test system of test [3] is K562. Nature of the test: Cytotoxicity against human K562 cells assessed as cell growth at 10^-6 M after 48 hrs by SRB assay. The following applies: K562, 48 h, read-out: Activity.
The nature of test [4]: Cytotoxicity against human HOP62 cells assessed as cell growth at 10^-6 M after 48 hrs by SRB assay. The following applies: HOP-62, 48 h, read-out: Activity.
Test [5] is described as follows: Cytotoxicity against human HL-60(TB) cells assessed as cell growth at 10^-8 M after 48 hrs by SRB assay. To be noted: HL-60, 48 h, read-out: Activity.
Test [6] is described as follows: Cytotoxicity against human OVCAR5 cells assessed as cell growth at 10^-6 M after 48 hrs by SRB assay. The following applies: OVCAR-5, 48 h, read-out: Activity.
The nature of test [7]: Cytotoxicity against human OVCAR8 cells assessed as cell growth at 10^-6 M after 48 hrs by SRB assay. To be noted: OVCAR-8, 48 h, read-out: Activity.
The nature of test [8]: Cytotoxicity against human SKOV3 cells assessed as cell growth at 10^-6 M after 48 hrs by SRB assay. To be noted: SK-OV-3, 48 h, read-out: Activity.
The nature of test [9]: Cytotoxicity against human SNB75 cells assessed as cell growth at 10^-8 M after 48 hrs by SRB assay. The following applies: SNB-75, 48 h, read-out: Activity.
In test [10] the test system is SK-MEL-5. Nature of the test: Cytotoxicity against human SK-MEL-5 cells assessed as cell growth at 10^-8 M after 48 hrs by SRB assay. To be noted: SK-MEL-5, 48 h, read-out: Activity.
Test [11] can be described thus: Cytotoxicity against human NCI-ADR-RES cells assessed as cell growth at 10^-8 M after 48 hrs by SRB assay. The following applies: read-out: Activity.
Test [12] concerns MCF7. Nature of the test: Cytotoxicity against human MCF7 cells assessed as cell growth at 10^-8 M after 48 hrs by SRB assay. To be noted: MCF7, 48 h, read-out: Activity.
Test [13] has as its system NCI-H522. The test is described as follows: Cytotoxicity against human NCI-H522 cells assessed as cell growth at 10^-7 M after 48 hrs by SRB assay. To be noted: NCI-H522, 48 h, read-out: Activity.
The nature of test [14]: Cytotoxicity against human NCI-ADR-RES cells assessed as cell growth at 10^-5 M after 48 hrs by SRB assay. To be noted: read-out: Activity.
Test [15] is described as follows: Cytotoxicity against human RXF393 cells assessed as cell growth at 10^-5 M after 48 hrs by SRB assay. The following applies: RXF 393, 48 h, read-out: Activity.
For test [16], the system named is MDA-MB-231. The test is described as follows: Cytotoxicity against human MDA-MB-231 cells assessed as cell growth at 10^-5 M after 48 hrs by SRB assay. To be noted: MDA-MB-231, 48 h, read-out: Activity.
A short description of test [17]: Cytotoxicity against human BT549 cells assessed as cell growth at 10^-5 M after 48 hrs by SRB assay. The following applies: BT-549, 48 h, read-out: Activity.
Test [18] can be described thus: Cytotoxicity against human HOP92 cells assessed as cell growth at 10^-4 M after 48 hrs by SRB assay. To be noted: HOP-92, 48 h, read-out: Activity.
Test [19] concerns NCI-H460. The test is described as follows: Cytotoxicity against human NCI-H460 cells assessed as cell growth at 10^-4 M after 48 hrs by SRB assay. The following applies: NCI-H460, 48 h, read-out: Activity.
The nature of test [20]: Cytotoxicity against human SF539 cells assessed as cell growth at 10^-4 M after 48 hrs by SRB assay. To be noted: SF-539, 48 h, read-out: Activity.
Test [21] is described as follows: Cytotoxicity against human UACC62 cells assessed as cell growth at 10^-4 M after 48 hrs by SRB assay. The following applies: UACC-62, 48 h, read-out: Activity.
The test system of test [22] is K562. Nature of the test: Cytotoxicity against human K562 cells assessed as cell growth at 0.5 uM after 48 hrs by SRB assay. The following applies: K562, 48 h, read-out: Activity.
A short description of test [23]: Cytotoxicity against human MOLT4 cells assessed as cell growth at 0.5 uM after 48 hrs by SRB assay. The following applies: MOLT-4, 48 h, read-out: Activity.
Test [24] in a line: Cytotoxicity against human SNB75 cells assessed as cell growth at 50 uM after 48 hrs by SRB assay. To be noted: SNB-75, 48 h, read-out: Activity.
In test [25] the test system is M14. The test is described as follows: Cytotoxicity against human M14 cells assessed as cell growth at 50 uM after 48 hrs by SRB assay. The following applies: M14, 48 h, read-out: Activity.
A short description of test [26]: Cytotoxicity against human Caki1 cells assessed as cell growth at 50 uM after 48 hrs by SRB assay. To be noted: CAKI-1, 48 h, read-out: Activity.
Test [27] concerns NCI-H460. Nature of the test: Cytotoxicity against human NCI-H460 cells assessed as cell growth at 0.5 uM after 48 hrs by SRB assay. To be noted: NCI-H460, 48 h, read-out: Activity.
Test [28] is described as follows: Cytotoxicity against human UACC257 cells assessed as cell growth at 0.5 uM after 48 hrs by SRB assay. The following applies: UACC-257, 48 h, read-out: Activity.
A short description of test [29]: Cytotoxicity against human OVCAR8 cells assessed as cell growth at 0.5 uM after 48 hrs by SRB assay. The following applies: OVCAR-8, 48 h, read-out: Activity.
In test [30] the test system is SN12C. The test is described as follows: Cytotoxicity against human SN12C cells assessed as cell growth at 0.5 uM after 48 hrs by SRB assay. To be noted: read-out: Activity.
Test [31] deals with EKVX. Nature of the test: Cytotoxicity against human EKVX cells assessed as cell growth at 5 uM after 48 hrs by SRB assay. To be noted: read-out: Activity.
In test [32] the test system is NCI-H23. Nature of the test: Cytotoxicity against human NCI-H23 cells assessed as cell growth at 5 uM after 48 hrs by SRB assay. To be noted: NCI-H23, 48 h, read-out: Activity.
The subject of test [33] is NCI-H460. The test is described as follows: Cytotoxicity against human NCI-H460 cells assessed as cell growth at 5 uM after 48 hrs by SRB assay. To be noted: NCI-H460, 48 h, read-out: Activity.
In test [34] the test system is SR. The test is described as follows: Cytotoxicity against human SR cells assessed as cell growth at 5 nM after 48 hrs by SRB assay. To be noted: read-out: Activity.
Test [35] is described as follows: Cytotoxicity against human HCC2998 cells assessed as cell growth at 5 nM after 48 hrs by SRB assay. To be noted: HCC 2998, 48 h, read-out: Activity.
Test [36] can be described thus: Cytotoxicity against human SF268 cells assessed as cell growth at 5 nM after 48 hrs by SRB assay. To be noted: SF-268, 48 h, read-out: Activity.
The nature of test [37]: Cytotoxicity against human SF539 cells assessed as cell growth at 5 nM after 48 hrs by SRB assay. The following applies: SF-539, 48 h, read-out: Activity.
For test [38], the system named is U-251. Nature of the test: Cytotoxicity against human U251 cells assessed as cell growth at 5 nM after 48 hrs by SRB assay. To be noted: U-251, 48 h, read-out: Activity.
Test [39] relates to ACHN. The test is described as follows: Cytotoxicity against human ACHN cells assessed as cell growth at 5 uM after 48 hrs by SRB assay. The following applies: read-out: Activity.
Test [40] in a line: Cytotoxicity against human Caki1 cells assessed as cell growth at 5 uM after 48 hrs by SRB assay. The following applies: CAKI-1, 48 h, read-out: Activity.
For test [41], the system named is EKVX. Nature of the test: Cytotoxicity against human EKVX cells assessed as cell growth at 50 uM after 48 hrs by SRB assay. The following applies: read-out: Activity.
Test [42] is described as follows: Cytotoxicity against human HCT116 cells assessed as cell growth at 50 uM after 48 hrs by SRB assay. The following applies: HCT-116, 48 h, read-out: Activity.

As for `C/C(=C(/c1ccc(O)cc1)c1ccc(OCCN2CCCC2)cc1)c1ccccc1`, the growth at 0.1 µM was 94% in [1], 101% in [2] and 94% in test [13]. Also, the growth at 1 µM in test [3] was 81%; in [4], 98%; in test [6] it was 85%; in [7], 98%; in [8] it was 89%. In addition, the growth at 0.01 µM in test [5] is 97%; in test [9], 72%; in test [10] it was 101%; in [11] it was 99%; in test [12] it was 44%. Also, the growth at 10 µM in test [14] was 25%; in [15], -37%; in test [16] it was -10%; in test [17], 24%. The growth at 100 µM in test [18] is -88%; in test [19] it was -92%; in test [20], -86%; in test [21], -79%.

Take `CCCCCCCCCC(=O)Oc1ccc(/C(=C(/C)c2ccccc2)c2ccc(OCCN3CCCC3)cc2)cc1`: the growth at 0.5 µM in [22] is 34%; in [23], 63%; in test [27] it was 78%; in [28], 76%; in test [29], 91%; in [30], 88%. Besides, the growth at 50 µM in test [24] is -90%; in test [25] it was -81%; in test [26], -89%; in [41] it was -97%; in test [42], -87%. For the same molecule, the growth at 5 µM was 74% in [31]; 80% in test [32]; 92% in [33]; 88% in [39]; 71% in test [40]. Further, the growth at 0.005 µM was 99% in test [34]; 98% in test [35]; 100% in [36]; 105% in [37]; 98% in [38].
